Publication PMC7203344, “Sirtuin 1 Inhibiting Thiocyanates (S1th)—A New Class of Isotype Selective Inhibitors of NAD^+ Dependent Lysine Deacetylases” (Frontiers in Oncology, 2020)

Key:
human Sirt2 = target: T1, human Sirt2 (Homo sapiens, UniProt Q8IXJ6); test: Homogeneous ZMAL-based fluorescence assay, Sirt2; format: biochemical; settings: 4th round
T1 construct: made in house; host or cells: E. coli BL21 Star (DE3)
T1 sequence (Q8IXJ6 56-356): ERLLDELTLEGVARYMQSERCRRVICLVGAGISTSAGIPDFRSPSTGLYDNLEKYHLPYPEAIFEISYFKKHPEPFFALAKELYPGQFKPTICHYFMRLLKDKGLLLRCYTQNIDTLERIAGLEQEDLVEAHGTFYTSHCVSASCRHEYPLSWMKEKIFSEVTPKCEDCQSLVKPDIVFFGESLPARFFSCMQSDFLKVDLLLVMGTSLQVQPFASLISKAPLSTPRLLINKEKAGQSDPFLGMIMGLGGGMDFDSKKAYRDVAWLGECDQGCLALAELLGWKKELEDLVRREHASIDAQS
Protocol: (§1) Recombinant human Sirt5_37−310 was purchased readily in Tris Buffer [25 mM Tris, 100 mM NaCl, 5 mM DTT, 10% glycerol (v/v)] from Enzo Life Sciences (NY, USA). Human Sirt3_118−395 was expressed and purified as described previously ([54]). For expression of human Sirt1_134−747 and Sirt2_56−356 chemically competent cells of E. coli BL21 Star (DE3) were transformed with the expression vectors pET30S-hSirt1_134−747 or pET30S-hSirt2_56−356. Bacteria were grown at 37°C in 2×YT medium supplemented with 50 μg·mL^−1 of kanamycin to an OD600 of 0.6. Then isopropyl-β-D-1-thiogalactopyranoside (IPTG) was added to a final concentration of 1 mM to induce gene expression. After further cultivation at 20°C for 12 h, the cells were harvested by centrifugation for 15 min at 5,000 g. The cells were resuspended in lysis buffer [100 mM Tris/HCl buffer at pH 8.0, 150 mM NaCl and 10% (v/v) glycerol] and disrupted by ultrasonication (Branson Digital Sonifier 250) at 70% amplitude for 10 min (3 s working, 10 s pause). The crude extract was cleared by centrifugation at 100,000 g for 1 h, and the supernatant was loaded onto a Strep-Tactin Superflow cartridge (5 ml bed volume, IBA Lifescience, Germany). Target proteins were eluted with lysis buffer containing 5 mM D-Desthiobiotin (IBA Lifescience, Germany) and further separated by size-exclusion chromatography (Superdex S200 26/60, GE Healthcare, IL, USA) equilibrated in Tris/HCl buffer (20 mM, 150 mM NaCl, pH 8.0). Pure protein was concentrated by ultrafiltration, flash-frozen in liquid nitrogen and stored at −80°C until further use. Identity as well as purity were verified by SDS-PAGE ([55]) and protein concentration was determined by the bicinchoninic acid (BCA) method, using bovine serum albumin (BSA) as a standard ([56]). Deacetylase activity was confirmed to be NAD^+-dependent and could be inhibited with the physiological sirtuin inhibitor nicotinamide.
(§2) All compounds were tested in the trypsin-coupled high-throughput ZMAL-assay in black 96-well plates (OptiPlateTM−96F, black, 96 well, Pinch bar design, PerkinElmer, USA), using ZMAL (Z-Lys(acetyl)-AMC) as a substrate ([57]). Sirt1_134−747, Sirt2_56−356, and Sirt3_118−395 were mixed with 5 μL substrate (10.5 μM final assay concentration, diluted from a […] stock in DMSO) and 3 μL Inhibitor in DMSO at various concentrations or DMSO as a control [final DMSO concentration 5% (v/v)]. The mixture was supplemented with assay buffer (50 mM Tris/HCl, 137 mM NaCl, 2.7 mM KCl, 1 mM MgCL2, pH 8.0) to a total volume of 55 μL. Enzyme concentration was adjusted to get a final conversion of 20–30%. Addition of 5 μL NAD^+ (6 mM in assay buffer, final assay concentration of 500 μM) initiated the catalytic reaction and the plates were incubated at 37°C for 4 h with agitation at 140 rpm. The catalytic reaction was stopped by addition of 60 μL stop solution [50 mM Tris, 100 mM NaCl, 6.7% (V/V) DMSO, 5.5 U/μL trypsin, 8 μM nicotinamide, pH 8.0]. The plate was again incubated at 37°C and 140 rpm for 20 min to release free AMC from the deacetylated substrate by trypsin digestion. Afterwards, fluorescence intensity was measured in a microplate reader (λEx = 390 nm, λEm = 460 nm, BMG POLARstar Optima, BMG Labtech, Germany). An enzyme-free blank control and a 100% conversion control containing AMC instead of ZMAL were measured in addition. Inhibition was calculated in % in relation to a DMSO control after blank signal subtraction and IC50 values were determined using a non-linear regression to fit the dose-response curve with OriginPro 9G (OriginLab, USA). Pre-tests as well as IC50 determination was carried out at least twice in duplicates.

human Sirt3 = target: T2, human Sirt3 (Homo sapiens, UniProt Q9NTG7); test: Homogeneous ZMAL-based fluorescence assay, Sirt3; format: biochemical; settings: 4th round
T2 construct: Human Sirt3_118−395 was expressed and purified as described previously; made in house
T2 sequence (Q9NTG7 118-395): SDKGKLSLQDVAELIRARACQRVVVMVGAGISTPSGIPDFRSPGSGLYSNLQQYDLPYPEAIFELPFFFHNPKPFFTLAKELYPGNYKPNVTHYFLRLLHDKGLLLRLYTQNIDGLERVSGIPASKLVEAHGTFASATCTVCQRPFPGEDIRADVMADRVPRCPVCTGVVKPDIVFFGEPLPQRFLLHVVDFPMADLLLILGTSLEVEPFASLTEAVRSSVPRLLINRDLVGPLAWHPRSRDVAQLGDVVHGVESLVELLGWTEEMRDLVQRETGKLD
Protocol: as §1, §2

HeLa cells = test: Wound healing assay with HeLa cells; format: cell-based, human; settings: 24 h; S1th 13 12 μM
Protocol: For wound healing assay 6 × 10^5 cells per well were seeded in 6-well plates and grown for 24 h in DMEM containing 10% FBS. After 24 h, a lineal gap between cells was created in the middle of the plate by scratching the cell monolayer with a 1 mL pipette tip in the same position in each well. Once the scratching is done, plates were washed twice with PBS and then grown in DMEM containing 1% FBS and the drugs in the same concentrations as for the proliferation assay. As described previously, the growth media 1% FBS containing the drugs was replaced every 48 h. Images were acquired in an Optimal microscope (Leica microscopes, DE) using Leica Application Suite X (LAS X) every 24 h (0, 24, 48, and 72 h) until the gap closed. The quantification of the area of the gap at the indicated times was performed with Image J-MRI Wound Healing Tool. The experiment was performed only once.

| SMILES | inhibition at 50 µM (human Sirt2) | inhibition at 50 µM (human Sirt3) | lower reduction of total wound area compared to control without drug (HeLa cells) |
| --- | --- | --- | --- |
| N#CSc1cc(SC#N)c(N)nc1N [PR-619, reference compound] | 36% | < 10% | – |
| N#CSc1cccc(NC(=O)[C@H]2CC=CC[C@H]2C(=O)O)c1 [S1th 10] | < 10% | < 10% | – |
| CCCCNC(=O)Nc1cccc(SC#N)c1 [S1th 11] | < 10% | < 10% | – |
| COc1ccc(SC#N)cc1OCC(=O)N(CCC#N)CCC#N [S1th 12] | < 10% | < 10% | – |
| N#CSc1cccc(NS(=O)(=O)c2ccc3c(c2)OCCO3)c1 [S1th 13] | < 10% | < 10% | ~ 50% |
